{"source": "PubChem BioAssay AID1963435", "about": "(Molecular Pharmacology Branch, DTP, NCI, 2024)", "test_system": "PANC-1 complex spheroid growth, percent test/control", "assay": "Anticancer human tumor PANC-1 cell line growth inhibition [Asc];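 also: spheroids exposed to agents for 7 days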;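 as to viability, T/C: percent viability relative to DMSO vehicle wells taken as 100%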", "details": "for viability, T/C: stronger effect = lower value", "procedure,_shortened": "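Spheroid model: tumor line + HUVEC + hMSC. Single agents and combinations; top conc. at/near clinical Cmax (10 microM if undetermined), half-log dilutions. DMSO stocks at 800-fold test concentration.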", "data": [{"smiles": "Cc1c(S(C)(=O)=O)c(-c2cc(F)cc(N3CCN(c4ccc(NS(=O)(=O)c5ccc(NC(CCN6CCC(C(=O)OCCCP(=O)(O)O)CC6)CSc6ccccc6)c(S(=O)(=O)C(F)(F)F)c5)cc4)CC3)c2)c(-c2ccc(Cl)cc2)n1C(C)C", "note": "(stereo unspecified)", "values": [{"measurement": "viability, T/C", "setting": "compound 0.0316 µM", "value": "106% [middle of 7 runs]"}, {"measurement": "viability, T/C", "setting": "compound 0.1 µM", "value": "108% [middle of 7 runs]"}, {"measurement": "viability, T/C", "setting": "compound 3.16 µM", "value": "109% [middle of 7 runs]"}, {"measurement": "IC50", "setting": "compound alone, run of 11/07/2022", "value": "> 10", "unit": "µM"}]}, {"smiles": "C#Cc1c(F)ccc2cc(O)cc(-c3ncc4c(N5CC6CCC(C5)N6)nc(OCC56CCCN5CC(F)C6)nc4c3F)c12", "note": "(stereo unspecified) + CCN1C(C(=O)NC23CCC(C(=O)O)(CC2)CC3)C(c2cccc(Cl)c2F)C2(C(=O)Nc3cc(Cl)ccc32)C12CCCCC2", "values": [{"measurement": "IC50", "setting": "curve of first compound, second compound 0.00949 µM", "value": "> 10", "unit": "µM"}, {"measurement": "IC50", "setting": "curve of first compound, second compound 0.03 µM", "value": "> 10", "unit": "µM"}, {"measurement": "IC50", "setting": "curve of first compound, second compound 0.0949 µM", "value": "> 10", "unit": "µM"}, {"measurement": "IC50", "setting": "curve of first compound, second compound 0.3 µM", "value": "> 10", "unit": "µM"}, {"measurement": "IC50", "setting": "curve of first compound, second compound 0.949 µM", "value": "> 10", "unit": "µM"}, {"measurement": "IC50", "setting": "curve of first compound, second compound 3 µM", "value": "> 10", "unit": "µM"}, {"measurement": "viability, T/C", "setting": "second compound 0.00949 µM, first compound 0.0316 µM", "value": 99.1, "unit": "%"}, {"measurement": "viability, T/C", "setting": "second compound 0.00949 µM, first compound 0.1 µM", "value": 79.1, "unit": "%"}, {"measurement": "viability, T/C", "setting": "second compound 0.00949 µM, first compound 0.316 µM", "value": 89.9, "unit": "%"}, {"measurement": "viability, T/C", "setting": "second compound 0.00949 µM, first compound 1 µM", "value": 90.8, "unit": "%"}, {"measurement": "viability, T/C", "setting": "second compound 0.00949 µM, first compound 3.16 µM", "value": 96.3, "unit": "%"}, {"measurement": "viability, T/C", "setting": "second compound 0.00949 µM, first compound 10 µM", "value": 84, "unit": "%"}, {"measurement": "viability, T/C", "setting": "second compound 0.03 µM, first compound 0.0316 µM", "value": 93.3, "unit": "%"}, {"measurement": "viability, T/C", "setting": "second compound 0.03 µM, first compound 0.1 µM", "value": 90.2, "unit": "%"}, {"measurement": "viability, T/C", "setting": "second compound 0.03 µM, first compound 0.316 µM", "value": 83.4, "unit": "%"}, {"measurement": "viability, T/C", "setting": "second compound 0.03 µM, first compound 1 µM", "value": 92.6, "unit": "%"}, {"measurement": "viability, T/C", "setting": "second compound 0.03 µM, first compound 3.16 µM", "value": 94.3, "unit": "%"}, {"measurement": "viability, T/C", "setting": "second compound 0.03 µM, first compound 10 µM", "value": 82.3, "unit": "%"}, {"measurement": "viability, T/C", "setting": "second compound 0.0949 µM, first compound 0.0316 µM", "value": 94, "unit": "%"}, {"measurement": "viability, T/C", "setting": "second compound 0.0949 µM, first compound 0.1 µM", "value": 84.3, "unit": "%"}, {"measurement": "viability, T/C", "setting": "second compound 0.0949 µM, first compound 0.316 µM", "value": 85, "unit": "%"}, {"measurement": "viability, T/C", "setting": "second compound 0.0949 µM, first compound 1 µM", "value": 82.2, "unit": "%"}, {"measurement": "viability, T/C", "setting": "second compound 0.0949 µM, first compound 3.16 µM", "value": 90.6, "unit": "%"}, {"measurement": "viability, T/C", "setting": "second compound 0.0949 µM, first compound 10 µM", "value": 88.8, "unit": "%"}, {"measurement": "viability, T/C", "setting": "second compound 0.3 µM, first compound 0.0316 µM", "value": 97, "unit": "%"}, {"measurement": "viability, T/C", "setting": "second compound 0.3 µM, first compound 0.1 µM", "value": 84.3, "unit": "%"}, {"measurement": "viability, T/C", "setting": "second compound 0.3 µM, first compound 0.316 µM", "value": 92.6, "unit": "%"}, {"measurement": "viability, T/C", "setting": "second compound 0.3 µM, first compound 1 µM", "value": 93.2, "unit": "%"}, {"measurement": "viability, T/C", "setting": "second compound 0.3 µM, first compound 3.16 µM", "value": 98.7, "unit": "%"}, {"measurement": "viability, T/C", "setting": "second compound 0.3 µM, first compound 10 µM", "value": 90.9, "unit": "%"}, {"measurement": "viability, T/C", "setting": "second compound 0.949 µM, first compound 0.0316 µM", "value": 98.4, "unit": "%"}, {"measurement": "viability, T/C", "setting": "second compound 0.949 µM, first compound 0.1 µM", "value": 85.5, "unit": "%"}, {"measurement": "viability, T/C", "setting": "second compound 0.949 µM, first compound 0.316 µM", "value": 92.8, "unit": "%"}, {"measurement": "viability, T/C", "setting": "second compound 0.949 µM, first compound 1 µM", "value": 90.5, "unit": "%"}, {"measurement": "viability, T/C", "setting": "second compound 0.949 µM, first compound 3.16 µM", "value": 93.7, "unit": "%"}, {"measurement": "viability, T/C", "setting": "second compound 0.949 µM, first compound 10 µM", "value": 82.8, "unit": "%"}, {"measurement": "viability, T/C", "setting": "second compound 3 µM, first compound 0.0316 µM", "value": 104, "unit": "%"}, {"measurement": "viability, T/C", "setting": "second compound 3 µM, first compound 0.1 µM", "value": 91.7, "unit": "%"}, {"measurement": "viability, T/C", "setting": "second compound 3 µM, first compound 0.316 µM", "value": 89.2, "unit": "%"}, {"measurement": "viability, T/C", "setting": "second compound 3 µM, first compound 1 µM", "value": 87.7, "unit": "%"}, {"measurement": "viability, T/C", "setting": "second compound 3 µM, first compound 3.16 µM", "value": 95.1, "unit": "%"}, {"measurement": "viability, T/C", "setting": "second compound 3 µM, first compound 10 µM", "value": 82.6, "unit": "%"}]}]}
